“And” between values parts separate entries of the source, which are not always exact repeats. Equal values may be shown once.
Assays:
[1] = test system: subjects with diabetic or idiopathic gastroparesis; assay: DIGEST I: weekly GRS total score; conditions: ITT
Description: Gastroparesis Rating Score is a patient reported outcome that measures 9 symptoms: (1) nausea, (2) bloating, (3) postprandial fullness, (4) early satiety, (5) vomiting, (6) abdominal pain, (7) epigastric burning, (8) gastric reflux with or without burning, and (9) bowel movements, using up to 27 questions assessing the severity of the symptom, the daily frequency of the symptom, the length of time on a daily basis of the symptom, and whether the symptom continues over a 24-hour period.
(§1) The total duration of study participation for each completed subject was approximately 19 weeks including: • Screening period: up to 5 weeks, including one week baseline period; • Treatment period: 12 weeks; and • Follow-up: 2 weeks.
During the treatment period, subjects were instructed to take 1 capsule of study drug once daily approximately 30 minutes prior to eating at approximately the same time each morning and to record the time of drug ingestion in the electronic diary. Subjects also completed the GCS1-24H and GRS on a daily basis using an electronic diary. […] Subjects returned to the study center for safety and efficacy assessments as detailed in the Schedule of Study Procedures.
A daily proprietary patient reported outcome (PRO) tool was used to assess GP symptoms, the Gastroparesis Rating Scale (GRS), developed according to the current FDA PRO guidance. The GRS covers the following cardinal symptom domains: (1) nausea, (2) vomiting, (3) postprandial fullness/early satiety, (4) bloating, (5) upper abdominal pain, (6) gastric reflux/burning, and (7) bowel movements. The GRS symptom domains may be also categorized or grouped into Factor 1 (fullness, early satiety, bloating, upper abdominal pain, and epigastric burning) and Factor 2 (nausea and vomiting).
The primary endpoint evaluation time point was Week 4 with sensitivity analyses conducted at Weeks 8 and 12.
LS Mean Differences in each subgroup are calculated based on repeated measures mixed effect model with change from baseline in weekly GRS total score as dependent variable, treatment, gastroparesis type (diabetic vs. idiopathic), GE test time (historical vs. prospective), baseline GRS total score, time, subgroup variable, interaction effect of treatment by time, baseline GRS total score by time, treatment by subgroup variable, time by subgroup variable and treatment by time by subgroup variable as fixed effect, a random effect of subject within site, using an unstructured covariance structure.

[2] = test system: subjects with diabetic or idiopathic gastroparesis; assay: DIGEST I Phase 2b: weekly GCSI-24H total score;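 further: Patient-reported daily electronic-diary symptom index rating nausea/vomiting, postprandial fullness/early satiety and bloating, averaged weekly, once-daily oral capsule taken before breakfast, baseline from 1-week pretreatment period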
Description: as §1
To qualify for entry into the Baseline Period of the study, subjects had to have: a) a composite score of 2 and <5 points on nausea, bloating, feeling excessively full after meals, and not able to finish a normal-sized meal on the GCS1-2W; b) a score of ≥3 points for at least 2 of these 4 symptoms on the GCS1-2W at Screening; and c) delayed gastric emptying as determined by either a 4-hour ^99mTc GES or GEBT. If a subject failed either the GES or GEBT at Screening, then a second gastric emptying test could have been performed during the Screening Period using the GEBT in order to qualify for the study. Subjects who were eligible for further study participation completed the 2 daily PRO measures (the Gastroparesis Rating Scale [GRS] and a daily version of the GCSI, designated the Gastroparesis Cardinal Symptoms Index—24-Hour Recall [GCS1-24H] in this study) over a 7-day period to establish baselines.
After the 1-week Baseline Period, subjects were required to have a 7-day mean score of ≥2.5 and <5 points on the GCS.1-24H at Day 1 to be eligible for entry. Eligible subjects completed the Patient Assessment of Upper Gastrointestinal Quality of Life (PAG1-QOL) questionnaire to establish baseline QOL metrics at Day 1.
During the treatment period, subjects were instructed to take 1 capsule of study drug once daily approximately 30 minutes prior to eating at approximately the same time each morning and to record the time of drug ingestion in the electronic diary. Subjects also completed the GCS1-24H and GRS on a daily basis using an electronic diary. At specified times, subjects also completed the PAG1-QOL questionnaire to assess QOL metrics and the Treatment Satisfaction Questionnaire. In addition, subjects and clinicians completed the Overall Treatment Effect (OTE) and Overall Gastroparesis Severity (OGS) instruments to serve as anchor instruments for the psychometric evaluation of the GRS measure. Subjects returned to the study center for safety and efficacy assessments as detailed in the Schedule of Study Procedures.
A total score was used to assess the GCSI PRO, which comprised a mean of 3 means symptoms domain score.
Each individual domain was evaluated. […] LS Mean Differences in each subgroup are calculated based on repeated measures mixed effect model with change from baseline in weekly GCSI-24H total score as dependent variable, treatment, gastroparesis type (diabetic vs. idiopathic), GE test time (historical vs. prospective), baseline GCSI 24H total score, time, subgroup variable, interaction effect of treatment by time, baseline GCSI 24H total score by time, treatment by subgroup variable, time by subgroup variable and treatment by time by subgroup variable as fixed effect, a random effect of subject within site, using an unstructured covariance structure. For GCSI baseline subgroup analysis, baseline 24H total score is replaced with GCSI baseline categorical variable.

[3] = 5 mg/day, Week 4, diabetic patients
[4] = 5 mg/day, Week 4, idiopathic patients
[5] = 5 mg/day, Week 8, diabetic patients
[6] = 5 mg/day, Week 8, idiopathic patients
[7] = 5 mg/day, Week 12, diabetic patients
[8] = 5 mg/day, Week 12, idiopathic patients
[9] = 5 mg/day, Week 14 (off therapy), diabetic patients
[10] = 5 mg/day, Week 14 (off therapy), idiopathic patients
[11] = 15 mg/day, Week 4, diabetic patients
[12] = 15 mg/day, Week 4, idiopathic patients
[13] = 15 mg/day, Week 8, diabetic patients
[14] = 15 mg/day, Week 8, idiopathic patients
[15] = 15 mg/day, Week 12, diabetic patients
[16] = 15 mg/day, Week 12, idiopathic patients
[17] = 15 mg/day, Week 14 (off therapy), diabetic patients
[18] = 15 mg/day, Week 14 (off therapy), idiopathic patients
[19] = 30 mg/day, Week 4, diabetic patients

With “1-isopropyl-2-oxo-1,2-dihydroquinoline-3-carboxylic acid {(1S,3R,5R)-8-[(R)-2-hydroxy-3-(methanesulfonyl-methyl-amino)propyl]-8-azabicyclo[3.2.1]oct-3-yl}amide [Velusetrag]” the “LS Mean Difference vs placebo, weekly GRS total score” value ([1]; 5 mg/day, Week 4) was −0.4 points and −0.4 (0.16) points, the “LS Mean change from baseline, weekly GRS total score” value ([1]; 5 mg/day, Week 4) was −1.3 (0.11) points and the “LS Mean Difference vs placebo, weekly GRS total score” value ([1]; 5 mg/day, Week 8) was −0.3 (0.18) points. The “LS Mean change from baseline, weekly GRS total score” value ([1]; 5 mg/day, Week 8) was −1.4 (0.13) points, the “LS Mean Difference vs placebo, weekly GRS total score” value ([1]; 5 mg/day, Week 12) was −0.4 (0.18) points and the “LS Mean change from baseline, weekly GRS total score” value ([1]; 5 mg/day, Week 12) was −1.5 (0.13) points. The “LS Mean Difference vs placebo, weekly GRS total score” value ([1]; 15 mg/day, Week 4) was −0.2 (0.17) points, the “LS Mean change from baseline, weekly GRS total score” value ([1]; 15 mg/day, Week 4) was −1.1 (0.12) points and the “LS Mean Difference vs placebo, weekly GRS total score” value ([1]; 15 mg/day, Week 8) was −0.1 (0.19) points. For the same substance, the “LS Mean change from baseline, weekly GRS total score” value ([1]; 15 mg/day, Week 8) was −1.2 (0.14) points, the “LS Mean Difference vs placebo, weekly GRS total score” value ([1]; 15 mg/day, Week 12) was −0.2 (0.19) points and the “LS Mean change from baseline, weekly GRS total score” value ([1]; 15 mg/day, Week 12) was −1.3 (0.14) points. For the same substance, the “LS Mean Difference vs placebo, weekly GRS total score” value ([1]; 30 mg/day, Week 4) was 0.0 (0.17) points, the “LS Mean change from baseline, weekly GRS total score” value ([1]; 30 mg/day, Week 4) was −0.8 (0.12) points and the “LS Mean Difference vs placebo, weekly GRS total score” value ([1]; 30 mg/day, Week 8) was −0.1 (0.19) points. For the same substance, the “LS Mean change from baseline, weekly GRS total score” value ([1]; 30 mg/day, Week 8) was −1.1 (0.13) points, the “LS Mean Difference vs placebo, weekly GRS total score” value ([1]; 30 mg/day, Week 12) was −0.1 (0.19) points and the “LS Mean change from baseline, weekly GRS total score” value ([1]; 30 mg/day, Week 12) was −1.3 (0.13) points. The “LS Mean Difference vs placebo, weekly GCSI-24H total score” value ([2]; 5 mg/day, Week 4, ITT) was −0.4 points, the “LS Mean change from baseline, weekly GCSI-24H total score” value ([2]; 5 mg/day, Week 4, ITT) was −1.5 (0.13) points and the “LS Mean Difference vs placebo, weekly GCSI-24H total score” value ([2]; 5 mg/day, Week 4, ITT, listed as VEL) was −0.4 (0.18) points. The “LS Mean Difference vs placebo, weekly GCSI-24H total score” value [2, 3] was −0.2 (0.25) points, the “LS Mean change from baseline, weekly GCSI-24H total score” value [2, 3] was −1.5 (0.18) points and the “LS Mean Difference vs placebo, weekly GCSI-24H total score” value [2, 4] was −0.6 (0.26) points. For the same substance, the “LS Mean change from baseline, weekly GCSI-24H total score” value [2, 4] was −1.5 (0.18) points, the “LS Mean Difference vs placebo, weekly GCSI-24H total score” value ([2]; 5 mg/day, Week 8, ITT) was −0.3 (0.20) points and the “LS Mean change from baseline, weekly GCSI-24H total score” value ([2]; 5 mg/day, Week 8, ITT) was −1.6 (0.14) points. For the same substance, the “LS Mean Difference vs placebo, weekly GCSI-24H total score” value [2, 5] was −0.1 (0.27) points, the “LS Mean change from baseline, weekly GCSI-24H total score” value [2, 5] was −1.6 (0.19) points and the “LS Mean Difference vs placebo, weekly GCSI-24H total score” value [2, 6] was −0.6 (0.28) points. For the same substance, the “LS Mean change from baseline, weekly GCSI-24H total score” value [2, 6] was −1.6 (0.20) points, the “LS Mean Difference vs placebo, weekly GCSI-24H total score” value ([2]; 5 mg/day, Week 12, ITT) was −0.3 points and the “LS Mean change from baseline, weekly GCSI-24H total score” value ([2]; 5 mg/day, Week 12, ITT) was −1.7 (0.15) points. The “LS Mean Difference vs placebo, weekly GCSI-24H total score” value ([2]; 5 mg/day, Week 12, ITT, listed as VEL) was −0.3 (0.21) points, the “LS Mean Difference vs placebo, weekly GCSI-24H total score” value [2, 7] was −0.0 (0.29) points and the “LS Mean change from baseline, weekly GCSI-24H total score” value [2, 7] was −1.7 (0.21) points. For the same substance, the “LS Mean Difference vs placebo, weekly GCSI-24H total score” value [2, 8] was −0.6 (0.30) points, the “LS Mean change from baseline, weekly GCSI-24H total score” value [2, 8] was −1.7 (0.21) points and the “LS Mean Difference vs placebo, weekly GCSI-24H total score” value [2, 9] was −0.2 (0.29) points. The “LS Mean change from baseline, weekly GCSI-24H total score” value [2, 9] was −1.7 (0.20) points, the “LS Mean Difference vs placebo, weekly GCSI-24H total score” value [2, 10] was −0.4 (0.30) points and the “LS Mean change from baseline, weekly GCSI-24H total score” value [2, 10] was −1.4 (0.21) points. For the same substance, the “LS Mean Difference vs placebo, weekly GCSI-24H total score” value ([2]; 15 mg/day, Week 4, ITT) was −0.1 (0.19) points, the “LS Mean change from baseline, weekly GCSI-24H total score” value ([2]; 15 mg/day, Week 4, ITT) was −1.2 (0.14) points and the “LS Mean Difference vs placebo, weekly GCSI-24H total score” value [2, 11] was 0.1 points. For the same substance, the “LS Mean change from baseline, weekly GCSI-24H total score” value [2, 11] was −1.2 points, the “LS Mean Difference vs placebo, weekly GCSI-24H total score” value [2, 12] was −0.3 (0.28) points and the “LS Mean change from baseline, weekly GCSI-24H total score” value [2, 12] was −1.2 (0.20) points. For the same substance, the “LS Mean Difference vs placebo, weekly GCSI-24H total score” value ([2]; 15 mg/day, Week 8, ITT) was −0.1 (0.21) points, the “LS Mean change from baseline, weekly GCSI-24H total score” value ([2]; 15 mg/day, Week 8, ITT) was −1.3 (0.15) points and the “LS Mean Difference vs placebo, weekly GCSI-24H total score” value [2, 13] was 0.3 points. The “LS Mean change from baseline, weekly GCSI-24H total score” value [2, 13] was −1.2 points, the “LS Mean Difference vs placebo, weekly GCSI-24H total score” value [2, 14] was −0.4 (0.30) points and the “LS Mean change from baseline, weekly GCSI-24H total score” value [2, 14] was −1.5 (0.22) points. For the same substance, the “LS Mean Difference vs placebo, weekly GCSI-24H total score” value ([2]; 15 mg/day, Week 12, ITT) was −0.0 (0.22) points, the “LS Mean change from baseline, weekly GCSI-24H total score” value ([2]; 15 mg/day, Week 12, ITT) was −1.4 (0.16) points and the “LS Mean Difference vs placebo, weekly GCSI-24H total score” value [2, 15] was 0.4 points. The “LS Mean change from baseline, weekly GCSI-24H total score” value [2, 15] was −1.3 points, the “LS Mean Difference vs placebo, weekly GCSI-24H total score” value [2, 16] was −0.4 (0.32) points and the “LS Mean change from baseline, weekly GCSI-24H total score” value [2, 16] was −1.5 (0.24) points. The “LS Mean Difference vs placebo, weekly GCSI-24H total score” value [2, 17] was 0.4 points, the “LS Mean change from baseline, weekly GCSI-24H total score” value [2, 17] was −1.1 points and the “LS Mean Difference vs placebo, weekly GCSI-24H total score” value [2, 18] was −0.1 (0.31) points. For the same substance, the “LS Mean change from baseline, weekly GCSI-24H total score” value [2, 18] was −1.2 (0.23) points, the “LS Mean Difference vs placebo, weekly GCSI-24H total score” value ([2]; 30 mg/day, Week 4, ITT) was 0.1 (0.19) points and the “LS Mean change from baseline, weekly GCSI-24H total score” value ([2]; 30 mg/day, Week 4, ITT) was −1.0 (0.13) points. The “LS Mean Difference vs placebo, weekly GCSI-24H total score” value [2, 19] was 0.2 points, the “LS Mean change from baseline, weekly GCSI-24H total score” value [2, 19] was −1.0 points and the “LS Mean Difference vs placebo, weekly GCSI-24H total score” value ([2]; 30 mg/day, Week 4, idiopathic patients) was −0.1 (0.26) points.

From patent US11642339B2 (THERAVANCE BIOPHARMA R&D IP, LLC, priority 2017, dated 2023)
